# System: ringworm infection
# Experiment: Treatment of ringworm infections on the skin of volunteer patients
# Format: in vivo, human
# Settings: twin teenage boys; prescribed oral treatment
# Description: The effectiveness of Composition A in treating fungal infections on the skin was determined on volunteer patients. In a first case, twin teenage boys were experiencing ringworm infections on the face, scalp, and neck. […] For […], the ringworm sores on […] face were treated by directly applying Composition A to the sores.
# The other teenage child was treated with a 100% solution of Composition A by dabbing it on the sores of their scalp and neck using a cotton swab twice a day over the course of 3 days. Various sores were treated over the next four to seven days with a diluted solution of Composition A. In particular, a few drops of Composition A were diluted with 10 drops of water, and the diluted solution was applied to the sores. […] Thereafter, a 1:100 solution of Composition A in water was used as a preventative treatment on the scalp prior to showering to avoid new ringworm infections.
# Thus, in a second test case, Composition A was used to treat a ringworm infection on the neck and shoulder region of a teenage child. Composition A was formulated with an aloe vera clear cream at a 2% w/v.
# In a third case, a middle-aged person was experiencing a significant ringworm infection on one foot. The ringworm infection was treated with Composition A in an aloe vera clear cream at 2% w/v.
compound,measurement,value
"OC(Cn1cncn1)(Cn1cncn1)c1ccc(F)cc1F [oral fluconazole, fluconazole]","ringworm infections on face, scalp and neck",ineffective at completely eradicating the ringworm infection
